The experiment deals with P388 leukemia ip, CD2F1 mice, survival T/C. The experiment in a line: NCI In Vivo Anticancer Drug Screen. Data for tumor model P388 Leukemia (intraperitoneal) in CD2F1 (CDF1) mice. The note with it: endpoint: median survival time, higher = longer survival. The method, boiled down: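 Mice carrying the transplanted tumor received test compound or vehicle. Survival was recorded in each group, and the value is the treated-group measurement divided by that of the vehicle-treated control group.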

Setting [1] is: dose: 100.0 mg/kg/injection, schedule: Q04DX003 (ip), vehicle: saline with Tween-80.
Where [2] appears, read: dose: 200.0 mg/kg/injection, schedule: Q04DX003 (ip), vehicle: saline with Tween-80.
[3] abbreviates: dose: 400.0 mg/kg/injection, schedule: Q04DX003 (ip), vehicle: saline with Tween-80.
[4] abbreviates: dose: 50.0 mg/kg/injection, schedule: Q01DX005 (ip), vehicle: Klucel (hydroxypropylcellulose) (HPC).
Setting [5] is: dose: 100.0 mg/kg/injection, schedule: Q01DX005 (ip), vehicle: Klucel (hydroxypropylcellulose) (HPC).
Setting [6] is: dose: 200.0 mg/kg/injection, schedule: Q01DX005 (ip), vehicle: Klucel (hydroxypropylcellulose) (HPC).
[7] abbreviates: dose: 60.0 mg/kg/injection, schedule: Q01DX005 (ip), vehicle: saline.
Setting [8] is: dose: 120.0 mg/kg/injection, schedule: Q01DX005 (ip), vehicle: saline.
The mark [9] stands for this setting: dose: 240.0 mg/kg/injection, schedule: Q01DX005 (ip), vehicle: saline.
Setting [10] is: dose: 60.0 mg/kg/injection, schedule: Q01DX005 (ip), vehicle: saline with Tween-80.
Where [11] appears, read: dose: 120.0 mg/kg/injection, schedule: Q01DX005 (ip), vehicle: saline with Tween-80.
Setting [12] is: dose: 25.0 mg/kg/injection, schedule: Q01DX009 (ip), vehicle: saline.
Setting [13] is: dose: 50.0 mg/kg/injection, schedule: Q01DX009 (ip), vehicle: saline.
Setting [14] is: dose: 100.0 mg/kg/injection, schedule: Q01DX009 (ip), vehicle: saline.
The mark [15] stands for this setting: dose: 100.0 mg/kg/injection, schedule: Q04DX003 (ip), vehicle: Klucel (hydroxypropylcellulose) (HPC).
Where [16] appears, read: dose: 50.0 mg/kg/injection, schedule: Q01DX005 (ip), vehicle: saline with Tween-80.
Where [17] appears, read: dose: 100.0 mg/kg/injection, schedule: Q01DX005 (ip), vehicle: saline with Tween-80.
Where [18] appears, read: dose: 200.0 mg/kg/injection, schedule: Q01DX005 (ip), vehicle: saline with Tween-80.

SMILES strings stand for the structures. Several values for one entry are separate records, joined by “and”; a condition that tells them apart may be missing. Equal entries are not always repeated. Toxic doses and inconclusive results are not listed.

Turning to `C[C@]12CC[C@@H]3c4ccc(OC(=O)Cc5ccc(N(CCCl)CCCl)cc5)cc4CC[C@H]3[C@@H]1CC[C@@H]2OC(=O)Cc1ccc(N(CCCl)CCCl)cc1`, the T/C reads like this: under setting [1], 100 % of control; under setting [2], 120 % of control; (dose: 264.0 mg/kg/injection, schedule: Q04DX003 (ip), vehicle: saline with Tween-80) 109 % of control; under setting [3], 113 % of control; (dose: 600.0 mg/kg/injection, schedule: Q04DX003 (ip), vehicle: saline with Tween-80) 154 % of control.

As to `C[C@]12CCC(=O)C(O)=C1CC[C@H]1[C@@H]3CCC(=O)[C@@]3(C)CC[C@@]12O`, the T/C was 101 % of control (dose: 12.5 mg/kg/injection, schedule: Q01DX005 (ip), vehicle: Klucel (hydroxypropylcellulose) (HPC)); 109 % of control (dose: 25.0 mg/kg/injection, schedule: Q01DX005 (ip), vehicle: Klucel (hydroxypropylcellulose) (HPC)); 104 % of control under setting [4]; 104 % of control under setting [5]; 96 % of control under setting [6].

With `CCc1cc(-c2cc(CC)nc(N)n2)nc(N)n1`, the T/C is 97 % of control under setting [7], 104 % of control under setting [8] and 100 % of control under setting [9].

With `O=C(/C=C/c1ccc(F)cc1)c1ccc(Cl)cc1`, the T/C runs as follows: under setting [1], 90 % of control; under setting [2], 86 % of control; under setting [3], 100 % of control.

With `COc1ccc(C(C#N)C(=O)C(=O)Nc2ccc(C)cc2C)cc1OC` (configuration not stated), the T/C under setting [10] is 95 % of control and the T/C under setting [11] was 100 % of control.

As to `CCCCN1C(=O)C2C3CCC(O3)C2C1=O` (configuration not stated), the T/C was 100 % of control under setting [10] and 92 % of control under setting [11].

On to `Cc1c2c(Cc3ccccc3)nccc2c(C)c2c1c1ccccc1n2Cc1ccccc1`, for which the T/C is, setting by setting: (dose: 6.25 mg/kg/injection, schedule: Q04DX003 (ip), vehicle: distilled water + Tween-80) 87 % of control; (dose: 12.5 mg/kg/injection, schedule: Q04DX003 (ip), vehicle: distilled water + Tween-80) 88 % of control; (dose: 50.0 mg/kg/injection, schedule: Q04DX003 (ip), vehicle: distilled water + Tween-80) 86 % of control.

In the case of `Cc1n[nH]c(=O)c(C#N)c1C`, the T/C was 95 % of control under setting [4], 100 % of control under setting [5] and 95 % of control under setting [6].

For `CCCNC(=S)N/N=C(/C)CC/C(C)=N/NC(=S)NCCC`, the T/C (dose: 12.5 mg/kg/injection, schedule: Q01DX009 (ip), vehicle: saline) is 98 % of control; the T/C under setting [12] is 99 % of control; the T/C under setting [13] is 104 % of control and 86 % of control.

As for `CCCCC1(C)OC(C)CC(C)O1` (configuration not stated), the T/C is 97 % of control under setting [7], 99 % of control under setting [8] and 108 % of control under setting [9].

With `O=C1CCC2=C1C(c1ccc(Cl)c(Cl)c1)C1=C(CCC1=O)O2`, the T/C reads like this: (dose: 100.0 mg/kg/injection, schedule: Q01DX001 (ip), vehicle: Klucel (hydroxypropylcellulose) (HPC)) 98 % of control; (dose: 200.0 mg/kg/injection, schedule: Q01DX001 (ip), vehicle: Klucel (hydroxypropylcellulose) (HPC)) 100 % of control; (dose: 400.0 mg/kg/injection, schedule: Q01DX001 (ip), vehicle: Klucel (hydroxypropylcellulose) (HPC)) 102 % of control.

For `Nc1ccc2cc(S(=O)(=O)O)cc(O)c2c1N=Nc1ccc(F)cc1`, the T/C is 93 % of control under setting [12]; 93 % of control under setting [13]; 88 % of control and 91 % of control under setting [14].

As for `O=C1CC(c2ccccc2)=NO1`, the T/C under setting [15] was 94 % of control; the T/C (dose: 200.0 mg/kg/injection, schedule: Q04DX003 (ip), vehicle: Klucel (hydroxypropylcellulose) (HPC)) was 99 % of control; the T/C (dose: 400.0 mg/kg/injection, schedule: Q04DX003 (ip), vehicle: Klucel (hydroxypropylcellulose) (HPC)) was 100 % of control.

Consider `CCN(Cc1cccc(S(=O)(=O)O)c1)c1ccc(C(=C2C=CC(=[N+](CC)Cc3cccc(S(=O)(=O)O)c3)C=C2)c2ccc(O)cc2S(=O)(=O)O)cc1`, for which the T/C under setting [10] is 107 % of control; the T/C under setting [11] was 98 % of control; the T/C (dose: 240.0 mg/kg/injection, schedule: Q01DX005 (ip), vehicle: saline with Tween-80) is 107 % of control.

As to `CC1(C)OCC2OC(n3cnc4c(N)ncnc43)C(O)C2O1` (configuration not stated), the T/C by setting is: (dose: 25.0 mg/kg/injection, schedule: Q01DX009 (ip), vehicle: Klucel (hydroxypropylcellulose) (HPC)) 111 % of control; (dose: 50.0 mg/kg/injection, schedule: Q01DX009 (ip), vehicle: Klucel (hydroxypropylcellulose) (HPC)) 111 % of control; (dose: 100.0 mg/kg/injection, schedule: Q01DX009 (ip), vehicle: Klucel (hydroxypropylcellulose) (HPC)) 111 % of control; (dose: 200.0 mg/kg/injection, schedule: Q01DX009 (ip), vehicle: Klucel (hydroxypropylcellulose) (HPC)) 97 % of control.

For the compound `C=C(C)/C([O-])=N/[N+](C)(C)CC(O)CCCCCCCCCCCC` (configuration not stated), the T/C (dose: 1.25 mg/kg/injection, schedule: Q01DX009 (ip), vehicle: Klucel (hydroxypropylcellulose) (HPC)) is 104 % of control; the T/C (dose: 2.5 mg/kg/injection, schedule: Q01DX005 (ip), vehicle: Klucel (hydroxypropylcellulose) (HPC)) is 100 % of control; the T/C (dose: 2.5 mg/kg/injection, schedule: Q01DX009 (ip), vehicle: Klucel (hydroxypropylcellulose) (HPC)) is 96 % of control; the T/C (dose: 5.0 mg/kg/injection, schedule: Q01DX005 (ip), vehicle: Klucel (hydroxypropylcellulose) (HPC)) was 101 % of control; the T/C (dose: 10.0 mg/kg/injection, schedule: Q01DX005 (ip), vehicle: Klucel (hydroxypropylcellulose) (HPC)) is 100 % of control; the T/C (dose: 10.0 mg/kg/injection, schedule: Q01DX009 (ip), vehicle: Klucel (hydroxypropylcellulose) (HPC)) was 91 % of control. For the same compound, the T/C by setting is: (dose: 20.0 mg/kg/injection, schedule: Q01DX005 (ip), vehicle: Klucel (hydroxypropylcellulose) (HPC)) 101 % of control; (dose: 40.0 mg/kg/injection, schedule: Q01DX005 (ip), vehicle: Klucel (hydroxypropylcellulose) (HPC)) 92 % of control.

With `O=C(NCCCBr)Nc1cccc2c1CCCC2`, the T/C was 100 % of control (dose: 100.0 mg/kg/injection, schedule: Q01DX009 (ip), vehicle: saline with Tween-80); 100 % of control under setting [1]; 100 % of control (dose: 200.0 mg/kg/injection, schedule: Q01DX009 (ip), vehicle: saline with Tween-80); 108 % of control under setting [2]; 100 % of control (dose: 400.0 mg/kg/injection, schedule: Q01DX009 (ip), vehicle: saline with Tween-80); 100 % of control under setting [3].

`O=c1[nH]ncn2nc3ccccc3c12`: the T/C by setting is: under setting [16], 100 % of control; under setting [17], 100 % of control; under setting [18], 104 % of control.

As for `COC1C(O)C(CO)OC1n1ccc(NC(=O)c2ccccc2)nc1=O` (configuration not stated), the T/C is 98 % of control and 93 % of control (dose: 60.0 mg/kg/injection, schedule: Q01DX005 (ip), vehicle: Klucel (hydroxypropylcellulose) (HPC)); 94 % of control (dose: 120.0 mg/kg/injection, schedule: Q01DX005 (ip), vehicle: Klucel (hydroxypropylcellulose) (HPC)); 91 % of control and 93 % of control (dose: 240.0 mg/kg/injection, schedule: Q01DX005 (ip), vehicle: Klucel (hydroxypropylcellulose) (HPC)).

On to `Cc1ccc(NC(=O)c2cc3ccccc3cc2O)c(C)c1.Cc1ccc(NC(=O)c2cc3ccccc3cc2O)c(C)c1.[Mn+2]`, for which the T/C runs as follows: under setting [13], 87 % of control; under setting [14], 86 % of control; (dose: 200.0 mg/kg/injection, schedule: Q01DX009 (ip), vehicle: saline) 86 % of control.

As to `COC(=O)/C=C(\C(=O)OC)C(C(C)=O)C(C)=NCCN=C(C)C(C(C)=O)/C(=C/C(=O)OC)C(=O)OC.[Cu]` (configuration not stated), the T/C (dose: 25.0 mg/kg/injection, schedule: Q04DX003 (ip), vehicle: Klucel (hydroxypropylcellulose) (HPC)) was 98 % of control; the T/C (dose: 50.0 mg/kg/injection, schedule: Q04DX003 (ip), vehicle: Klucel (hydroxypropylcellulose) (HPC)) was 103 % of control; the T/C under setting [15] is 107 % of control and 117 % of control.

In the case of `CCc1c(Cc2[nH]c(C=O)c(C)c2CC)[nH]c(C=O)c1C`, the T/C by setting is: under setting [16], 100 % of control; under setting [17], 100 % of control; under setting [18], 100 % of control.

These data come from PubChem BioAssay AID330 (DTP/NCI, 2004).
